Laboratory results taken from US20170029355A1, “LABILE ESTERS OF AGROCHEMICALS FOR CONTROLLED RELEASE AND REDUCTION OF OFF-SITE MOVEMENT” (Monsanto Technology LLC, priority 2011, published 2017).

Tests used:
[1] = Field dicamba volatility, airborne dicamba collected by air samplers (Example 34); assay type: physicochemical; conditions: field plot, 0.5 lb/acre dicamba a.e. with ROUNDUP WEATHERMAX, airborne dicamba collected over 24 hours, maximum 86° F.
[2] = In vitro dicamba photo-release from photo-labile dicamba esters, acetonitrile/10% water solvent (Example 27); assay type: physicochemical; conditions: acetonitrile containing 10% water
Description: This Example describes in vitro testing of dicamba photo-release by homogeneous solutions of photo-labile dicamba esters. The esters were dissolved in tetrahydrofuran (THF). Ester concentration was 0.1 mM. 25 ml of the solution was transferred to 22 mm tubes fabricated from graded seal quartz tubing with a 19/22 tapered seal at the top, which was closed with a tapered glass plug and secured with a plastic ring clamp. The solution was entirely below the quartz-to-glass transition, ensuring that the entire volume was exposed to the full spectrum.
The sealed tubes were placed in a Growth Chamber where they were exposed to simulated sunlight for 14 hours per day at 35° C. Dicamba concentrations in the solution were measured during the course of the photolysis.
A sample of the initial solution was reserved in a glass vial away from the light source and analyzed at the conclusion of the study, providing a measurement of the amount of dicamba present without illumination of the photolysis solution (the “dark control”).
This Example is another photolysis of photo-labile dicamba esters, but using acetonitrile containing 10% water by weight as the solvent. The experimental protocol is otherwise the same as in Example 18.

velvetleaf = assay: Greenhouse post-emergent control of velvetleaf by emulsifiable concentrates (Example 30); assay type: in vivo
Description: The efficacy of some photo-labile ester formulations from Example 28 for post-emergent control of velvetleaf was tested in the greenhouse. All formulations were tested at rates of 140, 280, 420, and 560 g dicamba equivalent per hectare rates and compared to the diglycolamine salt of dicamba (CLARITY®) at the same rates and untreated control plants. The velvetleaf plants were 10-15 cm in height at the time of spraying. Percent control was evaluated three weeks after treatment.
The methodology of Example 29 was used to evaluate the efficacy of several photo-labile esters of dicamba for post-emergent control of velvetleaf as emulsifiable concentrate formulations described in Example 28.

Palmer amaranth = assay: Extended pre-emergent control of Palmer amaranth; assay type: in vivo; conditions: emulsifiable concentrate, 21 and 44 days after treatment

With `COc1c(Cl)ccc(Cl)c1C(=O)OCc1ccccc1[N+](=O)[O-]` [Ester 1a, 2-Nitrobenzyl Ester of Dicamba] the “average dicamba level from the five air samplers” value [1] was 1.2 ng/m^3.
For `COc1c(Cl)ccc(Cl)c1C(=O)OCCc1ccccc1[N+](=O)[O-]` [Ester 2, 2-Nitrophenethyl Ester of Dicamba], the “Dark Control % dicamba” value ([2]; no illumination) was 0%, the “Conversion to dicamba, 1 day” value ([2]; simulated sunlight, 1 day) was 33% and the “Conversion to dicamba, 2 days” value ([2]; simulated sunlight, 2 days) was 56%. The “Conversion to dicamba, 3 days” value ([2]; simulated sunlight, 3 days) was 75%, the “Conversion to dicamba, 5 days” value ([2]; simulated sunlight, 5 days) was 93% and the “Conversion to dicamba, 7 days” value ([2]; simulated sunlight, 7 days) was 104%. The “Conversion to dicamba, 11 days” value ([2]; simulated sunlight, 11 days) was 107%, the “Conversion to dicamba, 13 days” value ([2]; simulated sunlight, 13 days) was 108% and the “Conversion to dicamba, 15 days” value ([2]; simulated sunlight, 15 days) was 96%. The “Conversion to dicamba, 19 days” value ([2]; simulated sunlight, 19 days) was 106%.
With `COc1c(Cl)ccc(Cl)c1C(=O)Oc1cnc2ccccc2n1` [Ester 13a, 2-quinoxalinol ester of dicamba] the “% Control of velvetleaf, 140 g/ha” value (velvetleaf; 140 g/ha) was 44%, the “% Control of velvetleaf, 280 g/ha” value (velvetleaf; 280 g/ha) was 69% and the “% Control of velvetleaf, 420 g/ha” value (velvetleaf; 420 g/ha) was 70%. For the same compound, the “% Control of velvetleaf, 560 g/ha” value (velvetleaf; 560 g/ha) was 83% and the “extended pre-emergent control of Palmer amaranth compared with the diglycolamine salt of dicamba, in words” value (Palmer amaranth) was “superior extended pre-emergent control”.
